According to US20240400606A1, “SMALL MOLECULE ACTIVATORS OF THE IMMUNE SYSTEM” (THE BOARD OF TRUSTEES OF THE UNIVERSITY OF ILLINOIS, priority 2021, published 2024):
Entries after “also recorded” stand apart in the source; their conditions may differ.

Tests used:
[1] = target: human carbonic anhydrase II (hCAII) (Homo sapiens (Human), UniProt P00918); test: Human carbonic anhydrase II assay; type: biochemical; conditions: concentrations up to 200 μM; listed as IB:10:D
Protocol: Human Carbonic Anhydrase II Assay. Stock solutions of compound of interest (in DMSO), acetazolamide (10 μM in DMSO), hCAII solution (65 μL of 33 μM stock to 1.935 mL hCAII assay buffer to make 1 μM hCAII solution), and 4-nitrophenylacetate (4-NPA; 60 μL of 100 mM DMSO stock to 3 mL hCAII assay buffer to make 2 mM 4-NPA solution). To the wells of a 384-well clear bottom plate were added 1 μL compound of interest or 10 μM acetazolamide. 20 μL of hCAII solution was added to all wells except no enzyme control well, in which case 20 μL hCAII assay buffer was added instead. Plates were incubated for 11 minutes at room temperature before addition of 4-NPA solution to all wells. Absorbance at 348 nm was read every 10 seconds of 11 minute total run time. Three technical replicates were assessed per plate. Controls: hCAII+4-NPA (DMSO added in place of compound of interest, DMSO control), 4-NPA background (no enzyme, DMSO added in place of compound of interest, 4-NPA control), hCAII+4-NPA+acetazolamide (acetazolamide added in place of compound of interest, known hCAII inhibitor).
Percent inhibition calculated as: 100−[100×[(AbSaverage, compound of interest−AbSaverage, 4-NPA)/(AbSaverage, DMSO−AbSaverage, 4-NPA)]].

SULT2B1b = SULT2B1b (Homo sapiens (Human), UniProt O00204); test: Compound aggregation assay (LC-MS/MS assay with BSA decoy protein); type: biochemical; conditions: decoy protein BSA 0.1 mg/mL, dose response; listed as IB:10:D
Protocol: Compound Aggregation Assay. Stock solutions of DHEA (5 mM in DMSO) and compound of interest (5 mM in DMSO) were prepared. For each 60 μL reaction, to a 1.5 mL Eppendorf tube was added 26.7 μL 1× assay buffer supplemented with 0.2 mg/mL bovine serum albumin (BSA) and 1.2 μL compound of interest or DMSO. BSA-containing 1× assay buffer and compound of interest were incubated at room temperature for 5 minutes before addition of 1.2 μL of 5 mM DHEA, and 0.9 μL 6.6 mM PAPS. SULT2B1b was diluted to 1.5 μg/μL in protein storage buffer then down to 0.8 μg/μL in 1× activity assay buffer. 30 μL of 0.8 μg/μL SULT2B1b was added to each reaction. Reactions were incubated for 2 hours at 37° C. with shaking at 250 rpm. To quench, 30 μL reaction mix was added to 30 μL ice cold 0.5% HCl in MeCN, then centrifuged at 13,000 xg at room temperature for 3 min. 50 μL supernatant was transferred to an empty Eppendorf tube and submitted for LC-MS/MS quantification (UIUC Metabolomics Center). For samples run without BSA, an identical protocol was followed using 26.7 μL 1× assay buffer that had not been supplemented with BSA. Controls: Reaction mix made with DHEA, DMSO in place of compound of interest (DHEA control).
Percent inhibition was calculated as: 100−[100×(DHEA-sulfate producedcompound of interest/DHEA sulfate producedDHEA)].

[2] = system: whole cell CS levels in T47D; test: Whole cell cholesterol sulfate quantification, T47D; type: cell-based; conditions: 6.25 μM, 72 hours
Protocol: General Whole Cell Cholesterol Sulfate Quantification. 60×15 mm tissue culture dishes were seeded with MCF-7 at 2×10^6 cells/dish or T47D at 1×10^6 cells per dish, 5 mL total media volume, and allowed to adhere overnight. Compounds of interest were dissolved in DMSO. Cells were treated with 25 μL 1.25 mM compound of interest stock (6.25 μM final compound concentration, 0.5% final DMSO concentration) or DMSO for 72 hours. To harvest, media was aspirated, and cells were washed once with PBS before detaching with trypsin. Trypsin was quenched with media. Cells were centrifuged at 300 xg for 3 minutes and supernatant was discarded. Cells were resuspended in media and counted using a Countess 3 automated cell counter (Thermo Fisher Scientific). 1.5×10^6 cells were collected, washed twice with 1 mL PBS, then pelleted and stored at −80° C. until lysis. […] 100 μL of supernatant was transferred to an empty Eppendorf tube and submitted for LC-MS/MS quantification (UIUC Metabolomics Center), along with 5 mM cholesterol sulfate sodium salt standard.
General LC-MS/MS Quantification Method. Both DHEAS and CS samples were analyzed by 6500 QTRAP (Sciex, Redwood City, CA) liquid chromatography-tandem mass spectrometry. […] Cholesterol-sulfate and DHEA-sulfate were detected by multiple reaction monitoring (MRM) at m/z 465→97.0 and 367.0→97.0 respectively. […]

[3] = system: STS and SULT2B1b levels in MCF-7; test: Western blot of STS and SULT2B1b after treatment, MCF-7; type: cell-based, human; conditions: MCF-7, 6.25 μM, 72 hours
Protocol: Western Blot Analysis. Cells were lysed using RIPA buffer containing phosphatase (BioVision) and protease inhibitor cocktail (Calbiochem). Protein concentrations were determined using the BCA assay (Pierce). Lysates containing 15 μg of protein were loaded onto 4-20% gradient gels (BioRad), and SDS-PAGE was run. Proteins were then transferred onto membrane (PVDF Millipore) for Western Blot analysis. Blots were blocked with BSA solution (2 g in 40 mL TBST) for one hour followed by primary antibody addition and incubation overnight (using manufacturer's recommended dilutions). Following overnight incubation, blots were washed with TBST, and incubated with HRP-linked secondary antibody for 1 hour in TBST. Blots were washed, then imaged with ChemiDoc after incubation with SuperSignal West Pico Solution following manufacturer's procedures.

SULT2B1b, sequence (O00204 whole entry): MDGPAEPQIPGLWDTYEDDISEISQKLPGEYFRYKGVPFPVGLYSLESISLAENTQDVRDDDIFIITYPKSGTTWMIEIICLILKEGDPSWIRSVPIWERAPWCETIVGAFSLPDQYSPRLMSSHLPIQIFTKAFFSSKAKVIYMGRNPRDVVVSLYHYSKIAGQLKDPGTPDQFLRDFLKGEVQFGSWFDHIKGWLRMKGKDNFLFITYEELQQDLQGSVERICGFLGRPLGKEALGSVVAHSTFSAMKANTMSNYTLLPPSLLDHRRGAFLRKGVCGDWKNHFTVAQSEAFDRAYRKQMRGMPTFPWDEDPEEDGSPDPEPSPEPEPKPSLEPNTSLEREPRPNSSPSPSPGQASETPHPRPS

Row | SMILES | inhibition of hCAII [1] | shift in SULT2B1b inhibition in the presence of BSA (SULT2B1b) | whole cell CS levels vs DMSO [2] | STS and SULT2B1b levels after treatment [3]
1 | C[C@]12CCC(=O)N(Cc3ccc(Cl)cc3)C1=CC[C@@H]1[C@@H]2C(=O)C[C@]2(C)C(=O)CC[C@@H]12 [Compound 1, (4aR,4bS,6aS,9aS,9bS)-1-(4-chlorobenzyl)-4a,6a-dimethyl-3,4,4a,6,6a,8,9,9a,9b,10-decahydro-1H-indeno[5,4-f]quinoline-2,5,7(4bH)-trione] | does not inhibit; also recorded: No inhibition | minimal shift; also recorded: no change | – | –
2 | C[C@]12CCC(=O)N(Cc3ccc(Br)cc3)C1=CC[C@@H]1[C@@H]2C(=O)C[C@]2(C)C(=O)CC[C@@H]12 [Compound 3, (4aR,4bS,6aS,9aS,9bS)-1-(4-bromobenzyl)-4a,6a-dimethyl-3,4,4a,6,6a,8,9,9a,9b,10-decahydro-1H-indeno[5,4-f]quinoline-2,5,7(4bH)-trione] | – | – | confirmed | unchanged
